Source: paper PMC8453745, “Human Mass Balance and Metabolite Profiling of [^14C]‐Pamiparib, a Poly (ADP‐Ribose) Polymerase Inhibitor, in Patients With Advanced Cancer” (Clinical Pharmacology in Drug Development, 2021)

How the values were obtained:
[1] = unchanged pamiparib in urine and renal clearance (LC‐MS/MS); type: in vivo, human
Description: Total radioactivity was analyzed at Covance Laboratories (Harrogate, North Yorkshire, UK), and metabolite profiling was conducted at Covance Laboratories (Madison, Wisconsin). Determination of pamiparib concentrations in plasma and total radioactivity in plasma and whole blood was performed predose and 0.25, 0.5, 1, 1.5, 2, 2.5, 3, 6, 12, 24, 48, 72, 96, 120, and 144 hours postdose. Pamiparib concentrations in plasma and urine were determined at Covance Laboratories (Salt Lake City, Utah) with validated liquid chromatography‐tandem mass spectrometry (LC‐MS/MS) methods.
An aliquot of human plasma (25 μL) containing dipotassium ethylenediaminetetraacetic acid as anticoagulant or urine (25 μL) was added with the internal standard (20.0 μL of 400 ng/mL BGB‐326) in water:ACN (50:50 v/v) followed by the addition of water:ACN (50:50 v/v, 20.0 μL). […]
Standard PK parameters of pamiparib in plasma as well as total radioactivity in blood and plasma were calculated with noncompartmental methods with Phoenix WinNonlin (version 8.1). Area under the concentration‐time curve (AUC) from time 0 to infinity (AUC0‐∞), AUC from time 0 to last quantifiable concentration (AUC0‐t), Cmax, time postdose at Cmax (tmax), t1/2, and apparent total clearance (CL/F) were calculated. Renal clearance (CLR) was calculated as Ae/AUC, where Ae was the amount of drug excreted in urine.

[2] = safety and tolerability in patients; type: in vivo, human
Description: Safety and tolerability were evaluated throughout the study, and AEs were assessed from the time of obtaining informed consent to discharge from the study and follow‐up visit or early withdrawal. Scheduled safety assessments of 12‐lead electrocardiogram, physical examination, vital signs, and clinical laboratory investigations (clinical chemistry, hematology, serology, and urinalysis) occurred before administration of the study drug and at discharge and follow‐up visit.

[3] = system: PARP1; set-up: method as in PMID 33264017; details: read-out: PARP1 inhibition IC50; cited from earlier work

C[C@]12CCCN1CC1=NNC(=O)c3cc(F)cc4[nH]c2c1c34 [Pamiparib]
cumulative percent of pamiparib excreted unchanged in urine, geometric mean ([1]; LC‐MS/MS, over the 192‐hour study): ≈ 1.7 % of the administered dose | CL renal ([1]; human, urine and plasma, oral, 60 mg, calculated as Ae/AUC, read-out: renal clearance, geometric mean (converted)): 0.623 mL/min | patients with TEAEs ([2]; 4 patients): 100% | severity of all TEAEs ([2]; 4 patients): mild (CTCAE grade 1) | TEAEs considered related to [^14C]‐pamiparib, percent of events ([2]; in 2 patients): 31.3% | TEAEs considered unrelated to [^14C]‐pamiparib, percent of events ([2]; in 4 patients): 68.8% | TEAEs reported (events) ([2]; in 4 patients): 16 | tolerability ([2]; single dose 60 mg [^14C]‐pamiparib, 4 patients): well tolerated | deaths or serious AEs ([2]; single dose 60 mg, 4 patients): no deaths or serious AEs | IC50 [3]: 1.3 nM
